Measurements taken from patent EP4563146A1 (IRBM S.P.A., priority 2023, dated 2025).
Where two headings read alike, the source gives them in different places.

Tested on: ZIKV replicon
Experiment: ZIKV replication inhibition assay (NanoLuc replicon in Vero cells)
Details: Zika virus, Vero, 72 h
[1] = read-out: ZIKA Cell_Nanoluc, Vero cells with stable ZIKV replicon, 72 h, Nano-Glo readout

Row | Structure (SMILES) | EC50 (read-out: ZIKA Cell_Nanoluc) | EC50 [1]
1 | O=C([N-]c1c[n+](Cc2ccccn2)no1)Nc1cc(NC(=O)C2CCCC3(CCOC3)O2)cc(C(F)(F)F)c1 (centres unmarked) [Example 84] | 1 to 20 µM | –
2 | O=C([N-]c1c[n+](Cc2ccccn2)no1)Nc1cc(NC(=O)C2CC(F)(F)C23CCC3)cc(C(F)(F)F)c1 (centres unmarked) [Example 85] | 1 to 20 µM | –
3 | O=C(CC1(N2CCCC2)COC1)Nc1cc(NC(=O)[N-]c2c[n+](Cc3ccccn3)no2)cc(C(F)(F)F)c1 [Example 86, (3-(Pyridin-2-ylmethyl)-1,2,3-oxadiazol-3-ium-5-yl)((3-(2-(3-(pyrrolidin-1-yl)oxetan-3-yl)acetamido)-5-(trifluoromethyl)phenyl)carbamoyl)amide] | – | 1 to 20 µM
4 | O=C([N-]c1c[n+](Cc2ccccn2)no1)Nc1cc(NC(=O)c2[nH]cc3c2CCC3)cc(C(F)(F)F)c1 [Example 87, (3-(Pyridin-2-ylmethyl)-1,2,3-oxadiazol-3-ium-5-yl)((3-(2,4,5,6-tetrahydrocyclopenta[c]pyrrole-1-carboxamido)-5-(trifluoromethyl)phenyl)-carbamoyl)amide] | – | > 20 µM
5 | O=C([N-]c1c[n+](Cc2ccccn2)no1)Nc1cc(NC(=O)C2CS(=O)(=O)CCO2)cc(C(F)(F)F)c1 (centres unmarked) [Example 88] | > 20 µM | –
6 | O=C(Cc1ccccc1)Nc1cc(NC(=O)[N-]c2c[n+](Cc3ccccn3)no2)cc(C2CC2)c1 [Example 89, ((3-Cyclopropyl-5-(2-phenylacetamido)phenyl)carbamoyl)(3-(pyridin-2-ylmethyl)-1,2,3-oxadiazol-3-ium-5-yl)amide] | – | 1 to 20 µM
7 | O=C(Cc1cc(NC(=O)[N-]c2c[n+](Cc3ccccn3)no2)cc(C(F)(F)F)c1)NCc1ccccc1 [Example 90, ((3-(2-(Benzylamino)-2-oxoethyl)-5-(trifluoromethyl)phenyl)carbamoyl)(3-(pyridin-2-ylmethyl)-1,2,3-oxadiazol-3-ium-5-yl)amide] | – | 1 to 20 µM
8 | C=CCOC(=O)C[n+]1cc([N-]C(=O)Nc2cc(NC(=O)Cc3ccccc3)cc(C(F)(F)F)c2)on1 [Example 97, (3-(2-(Allyloxy)-2-oxoethyl)-1,2,3-oxadiazol-3-ium-5-yl)((3-(2-phenylacetamido)-5-(trifluoromethyl)phenyl)carbamoyl)amide] | – | > 20 µM
9 | COC(=O)c1ccc(C[n+]2cc([N-]C(=O)Nc3cc(NC(=O)Cc4ccccc4)cc(C(F)(F)F)c3)on2)cc1 [Example 98, (3-(4-(Methoxycarbonyl)benzyl)-1,2,3-oxadiazol-3-ium-5-yl)((3-(2-phenyl-acetamido)-5-(trifluoromethyl)phenyl)carbamoyl)amide] | – | 1 to 20 µM
10 | O=C(Cc1ccccc1)Nc1cc(NC(=O)[N-]c2c[n+](C3CCNCC3)no2)cc(C(F)(F)F)c1 [Example 99, ((3-(2-Phenylacetamido)-5-(trifluoromethyl)-phenyl)carbamoyl)(3-(piperidin-4-yl)-1,2,3-oxadiazol-3-ium-5-yl)amide] | – | 1 to 20 µM
11 | CN1CCC([n+]2cc([N-]C(=O)Nc3cc(NC(=O)Cc4ccccc4)cc(C(F)(F)F)c3)on2)CC1 [Example 100, (3-(1-Methylpiperidin-4-yl)-1,2,3-oxadiazol-3-ium-5-yl)((3-(2-phenylacetamido)-5-(trifluoromethyl)phenyl)carbamoyl)amide] | – | 1 to 20 µM
12 | O=C(Cc1ccccc1)Nc1cc(NC(=O)[N-]c2c[n+](Cc3ccc(C(=O)O)cc3)no2)cc(C(F)(F)F)c1 [Example 101, (3-(4-Carboxybenzyl)-1,2,3-oxadiazol-3-ium-5-yl)((3-(2-phenylacetamido)-5-(trifluoromethyl)phenyl)carbamoyl)amide] | – | > 20 µM
13 | O=C(Cc1ccccc1)Nc1cc(NC(=O)[N-]c2c[n+](Cc3ccc(CO)cc3)no2)cc(C(F)(F)F)c1 [Example 102, (3-(4-(Hydroxymethyl)benzyl)-1,2,3-oxadiazol-3-ium-5-yl)((3-(2-phenylacetamido)-5-(trifluoromethyl)phenyl)carbamoyl)amide] | – | 1 to 20 µM
14 | NCC12CC(C[n+]3cc([N-]C(=O)Nc4cc(NC(=O)Cc5ccccc5)cc(C(F)(F)F)c4)on3)(C1)C2 [Example 103] | > 20 µM | –
15 | NC(=O)c1ccc(C[n+]2cc([N-]C(=O)Nc3cc(NC(=O)Cc4ccccc4)cc(C(F)(F)F)c3)on2)cc1 [Example 104, (3-(4-Carbamoylbenzyl)-1,2,3-oxadiazol-3-ium-5-yl)((3-(2-phenylacetamido)-5-(trifluoromethyl)phenyl)carbamoyl)amide] | – | 1 to 20 µM
16 | CN1CCCCC1C[n+]1cc([N-]C(=O)Nc2cc(NC(=O)Cc3ccccc3)cc(C(F)(F)F)c2)on1 (centres unmarked) [Example 105, (3-((1-Methylpiperidin-2-yl)methyl)-1,2,3-oxadiazol-3-ium-5-yl)((3-(2-phenylacetamido)-5-(trifluoromethyl)phenyl)carbamoyl)amide] | – | 0.1 to 1 µM
17 | CN1CCC(C[n+]2cc([N-]C(=O)Nc3cc(NC(=O)Cc4ccccc4)cc(C(F)(F)F)c3)on2)CC1 [Example 106, (3-((1-Methylpiperidin-4-yl)methyl)-1,2,3-oxadiazol-3-ium-5-yl)((3-(2-phenylacetamido)-5-(trifluoromethyl)phenyl)carbamoyl)amide] | – | 1 to 20 µM
18 | O=C(Cc1ccccc1)Nc1cc(NC(=O)[N-]c2c[n+](Cc3cccc(CN4C(=O)c5ccccc5C4=O)c3)no2)cc(C(F)(F)F)c1 [Example 107, (3-(3-((1,3-Dioxoisoindolin-2-yl)methyl)benzyl)-1,2,3-oxadiazol-3-ium-5-yl)((3-(2-phenylacetamido)-5-(trifluoromethyl)phenyl)carbamoyl)amide] | – | 1 to 20 µM
19 | NCc1cccc(C[n+]2cc([N-]C(=O)Nc3cc(NC(=O)Cc4ccccc4)cc(C(F)(F)F)c3)on2)c1 [Example 108, (3-(3-(Aminomethyl)benzyl)-1,2,3-oxadiazol-3-ium-5-yl)((3-(2-phenylacetamido)-5-(trifluoromethyl)phenyl)carbamoyl)amide] | – | 1 to 20 µM
20 | COC(=O)Cc1ccc(C[n+]2cc([N-]C(=O)Nc3cc(NC(=O)Cc4ccccc4)cc(C(F)(F)F)c3)on2)cc1 [Example 109, (3-(4-(2-Methoxy-2-oxoethyl)benzyl)-1,2,3-oxadiazol-3-ium-5-yl)((3-(2-phenylacetamido)-5-(trifluoromethyl)phenyl)carbamoyl)amide] | – | 0.1 to 1 µM
21 | O=C(Cc1ccccc1)Nc1cc(NC(=O)[N-]c2c[n+](CC3CCCNC3)no2)cc(C(F)(F)F)c1 (centres unmarked) [Example 110, ((3-(2-Phenylacetamido)-5-(trifluoromethyl)phenyl)carbamoyl)(3-(piperidin-3-ylmethyl)-1,2,3-oxadiazol-3-ium-5-yl)amide] | – | > 20 µM
22 | O=C(Cc1ccccc1)Nc1cc(NC(=O)[N-]c2c[n+](Cc3ccc(CCO)cc3)no2)cc(C(F)(F)F)c1 [Example 111, (3-(4-(2-Hydroxyethyl)benzyl)-1,2,3-oxadiazol-3-ium-5-yl)((3-(2-phenylacetamido)-5-(trifluoromethyl)phenyl)carbamoyl)amide] | – | 0.1 to 1 µM
23 | NC1C2COCC1CC([n+]1cc([N-]C(=O)Nc3cc(NC(=O)Cc4ccccc4)cc(C(F)(F)F)c3)on1)C2 (centres unmarked) [Example 112, (3-(9-Amino-3-oxabicyclo[3.3.1]nonan-7-yl)-1,2,3-oxadiazol-3-ium-5-yl)((3-(2-phenylacetamido)-5-(trifluoromethyl)phenyl)carbamoyl)amide] | – | > 20 µM
